# Results from ChEMBL document CHEMBL3885881, “DrugMatrix”.
# Species: Rattus norvegicus
# Test: DrugMatrix - Regimen: Daily Repeat
# Type: toxicity, organism-based, Sprague-Dawley
# Design: regimen Daily Repeat, gender Male, age 6-8 weeks
# Settings: in vivo, po, 0 mg/kg, route oral GAVAGE, dose level Control, vehicle 100 % WATER; for ABSOLUTE BASOPHIL / ABSOLUTE EOSINOPHIL / ABSOLUTE LYMPHOCYTE / ABSOLUTE MONOCYTE / ABSOLUTE SEGMENTED NEUTROPHIL / BASOPHIL / EOSINOPHIL / ERYTHROCYTE COUNT / HEMATOCRIT / HEMOGLOBIN / LEUKOCYTE COUNT / LYMPHOCYTE / MEAN CORPUSCULAR HEMOGLOBIN / MEAN CORPUSCULAR HEMOGLOBIN CONCENTRATION / MEAN CORPUSCULAR VOLUME / MONOCYTE / NEUTROPHIL / NUCLEATED RED BLOOD CELLS / PLATELET COUNT: tissue Blood
# [1] = 72 h, tissue Plasma, time 3 day
# [2] = 120 h, tissue Plasma, time 5 day
structure (smiles),measurement,setting,value
CNC1=Nc2ccc(Cl)cc2C(c2ccccc2)=[N+]([O-])C1 [CHLORDIAZEPOXIDE],ABSOLUTE BASOPHIL,"72 h, time 3 day",0 CELLS/uL
same,ABSOLUTE EOSINOPHIL,"72 h, time 3 day",40 CELLS/uL
same,ABSOLUTE LYMPHOCYTE,"72 h, time 3 day",13599.5 CELLS/uL
same,ABSOLUTE MONOCYTE,"72 h, time 3 day",239.33 CELLS/uL
same,ABSOLUTE SEGMENTED NEUTROPHIL,"72 h, time 3 day",1021.17 CELLS/uL
same,BASOPHIL,"72 h, time 3 day",0%
same,EOSINOPHIL,"72 h, time 3 day",0.33%
same,ERYTHROCYTE COUNT,"72 h, time 3 day",5.71 x10E6/uL
same,HEMATOCRIT,"72 h, time 3 day",36.35%
same,HEMOGLOBIN,"72 h, time 3 day",14.05 G/DL
same,LEUKOCYTE COUNT,"72 h, time 3 day",14.9 x10E3/uL
same,LYMPHOCYTE,"72 h, time 3 day",91%
same,MEAN CORPUSCULAR HEMOGLOBIN,"72 h, time 3 day",24.62 pg
same,MEAN CORPUSCULAR HEMOGLOBIN CONCENTRATION,"72 h, time 3 day",38.65 G/DL
same,MEAN CORPUSCULAR VOLUME,"72 h, time 3 day",63.7 fL
same,MONOCYTE,"72 h, time 3 day",1.5%
same,NEUTROPHIL,"72 h, time 3 day",7.17%
same,NUCLEATED RED BLOOD CELLS,"72 h, time 3 day",0.33 /100WBC
same,PLATELET COUNT,"72 h, time 3 day",1225.5 x10E3/uL
same,ALANINE AMINOTRANSFERASE,[1],48.5 u/L
same,ALKALINE PHOSPHATASE,[1],390.83 u/L
same,ASPARTATE AMINOTRANSFERASE,[1],89 u/L
same,BLOOD UREA NITROGEN,[1],14.83 mg/dL
same,CARBON DIOXIDE,[1],24.83 mmol/L
same,CHLORIDE,[1],100.83 MEQ/L
same,CHOLESTEROL,[1],72.5 mg/dL
same,CREATINE PHOSPHOKINASE,[1],503 u/L
same,CREATININE,[1],0.2 mg/dL
same,GLUCOSE,[1],163 mg/dL
same,LACTATE DEHYDROGENASE,[1],316.83 u/L
same,LIPASE,[1],9.83 u/L
same,PHOSPHORUS,[1],11.57 mg/dL
same,POTASSIUM,[1],6.16 MEQ/L
same,SODIUM,[1],142.62 MEQ/L
same,TOTAL BILIRUBIN,[1],0.2 mg/dL
same,TOTAL PROTEIN,[1],5.8 G/DL
same,URIC ACID,[1],1.65 mg/dL
same,ABSOLUTE BASOPHIL,"120 h, time 5 day",0 CELLS/uL
same,ABSOLUTE EOSINOPHIL,"120 h, time 5 day",21 CELLS/uL
same,ABSOLUTE LYMPHOCYTE,"120 h, time 5 day",14288.5 CELLS/uL
same,ABSOLUTE MONOCYTE,"120 h, time 5 day",205.33 CELLS/uL
same,ABSOLUTE SEGMENTED NEUTROPHIL,"120 h, time 5 day",968.5 CELLS/uL
same,BASOPHIL,"120 h, time 5 day",0%
same,EOSINOPHIL,"120 h, time 5 day",0.17%
same,ERYTHROCYTE COUNT,"120 h, time 5 day",5.83 x10E6/uL
same,HEMATOCRIT,"120 h, time 5 day",36.53%
same,HEMOGLOBIN,"120 h, time 5 day",14.4 G/DL
same,LEUKOCYTE COUNT,"120 h, time 5 day",15.48 x10E3/uL
same,LYMPHOCYTE,"120 h, time 5 day",92%
same,MEAN CORPUSCULAR HEMOGLOBIN,"120 h, time 5 day",24.72 pg
same,MEAN CORPUSCULAR HEMOGLOBIN CONCENTRATION,"120 h, time 5 day",39.43 G/DL
same,MEAN CORPUSCULAR VOLUME,"120 h, time 5 day",62.68 fL
same,MONOCYTE,"120 h, time 5 day",1.33%
same,NEUTROPHIL,"120 h, time 5 day",6.5%
same,NUCLEATED RED BLOOD CELLS,"120 h, time 5 day",0.17 /100WBC
same,PLATELET COUNT,"120 h, time 5 day",1280.5 x10E3/uL
same,ALANINE AMINOTRANSFERASE,[2],50 u/L
same,ALKALINE PHOSPHATASE,[2],380.17 u/L
same,ASPARTATE AMINOTRANSFERASE,[2],82.67 u/L
same,BLOOD UREA NITROGEN,[2],15.33 mg/dL
same,CARBON DIOXIDE,[2],27.17 mmol/L
same,CHLORIDE,[2],100.33 MEQ/L
same,CHOLESTEROL,[2],60.67 mg/dL
same,CREATINE PHOSPHOKINASE,[2],441.5 u/L
same,CREATININE,[2],0.16 mg/dL
same,GLUCOSE,[2],146 mg/dL
same,LACTATE DEHYDROGENASE,[2],189.33 u/L
same,LIPASE,[2],9.17 u/L
same,PHOSPHORUS,[2],11.67 mg/dL
same,POTASSIUM,[2],6.86 MEQ/L
same,SODIUM,[2],142.33 MEQ/L
same,TOTAL BILIRUBIN,[2],0.2 mg/dL
same,TOTAL PROTEIN,[2],6.12 G/DL
